Experimental findings from ChEMBL document CHEMBL1201862, “PubChem BioAssay data set” (2004) are described below.

The source made the active and inactive calls.

Test [1] is described as follows: cytotoxicity in HEK-293T cells, dose response, cytotoxicity control for TCR NF-kB inhibitor project, luminescence, T-cell screen hits (AID 489026).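 Note: cells exposed to compound about 14 hours before the viability readout.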 It counts as functional, cell-based.
Test [2] relates to BJ. Nature of the test: cells. Format: functional, cell-based. The conditions noted are these: Homo sapiens.
Test [3] has as its target ATP-dependent molecular chaperone HSP82 (Candida albicans (strain WO-1) (Yeast), UniProt C4YTQ8). Put plainly: loss of DOC-induced GRE-beta-galactosidase reporter signal, dose response, Hsp90 inhibitor project, S. cerevisiae, luminescence (AID 2400).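 Note: beta-galactosidase luminescence from glucocorticoid response element reporter as proxy for Hsp90 function; inhibitor potency where signal loss means Hsp90 inhibition.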 Format: functional, cell-based.
Another test is described as follows: cells. Format: functional, cell-based.
The subject of test [4] is BJ. Nature of the test: cytotoxicity toward BJ-TERT-LT-ST fibroblasts, dose response, cell-based, RAS-independent, luminescence (AID 1935).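 Note: BJ fibroblasts immortalized with TERT plus LT and ST oncogenes.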 Format: functional. The conditions noted are these: Homo sapiens.
The subject of a further test is HEK293. Nature of the test: SAR Analysis of small molecule inhibitors of T-cell specific antigen receptor-induced NF-kB activation in a HEK-293T cell line using a luminescence assay - Set 2. [Related pubchem assays (depositor defined):AID435003, AID435012, AID489026]. Format: functional, cell-based. The following applies: Homo sapiens.
A further test deals with T1, Caspase-3 (Homo sapiens, UniProt P42574).
T1 sequence (P42574 whole entry): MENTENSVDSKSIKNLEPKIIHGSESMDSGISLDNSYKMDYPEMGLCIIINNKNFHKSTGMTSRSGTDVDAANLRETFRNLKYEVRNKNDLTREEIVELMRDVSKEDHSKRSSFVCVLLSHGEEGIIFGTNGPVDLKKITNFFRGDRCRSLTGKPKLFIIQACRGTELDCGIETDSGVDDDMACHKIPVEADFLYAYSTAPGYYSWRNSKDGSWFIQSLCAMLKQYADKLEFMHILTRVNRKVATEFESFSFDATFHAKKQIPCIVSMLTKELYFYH
Format: functional.

The target in the next test is Caspase-8 (Homo sapiens, UniProt Q14790). Put plainly: caspase-8 inhibition counter-screen, dose response, selectivity assay for caspase-6 inhibitor project, biochemical, Z-IETD-R110 fluorescence, cherry-picked samples (AID 743294). (In general: Counterscreens check selectivity or assay interference.)
Sequence of Caspase-8 (Q14790 217-374 limits assumed): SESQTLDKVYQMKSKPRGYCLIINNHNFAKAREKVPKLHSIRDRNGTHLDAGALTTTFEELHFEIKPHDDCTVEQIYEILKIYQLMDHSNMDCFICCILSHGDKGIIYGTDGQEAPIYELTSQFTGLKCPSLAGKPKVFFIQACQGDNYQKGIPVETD
Sequence of Caspase-8 (Q14790 385-479 limits assumed): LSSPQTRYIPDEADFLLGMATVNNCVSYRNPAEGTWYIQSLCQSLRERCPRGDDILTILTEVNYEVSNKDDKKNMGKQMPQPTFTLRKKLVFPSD
The target in test [5] is T2, Histone-lysine N-methyltransferase NSD2 (Homo sapiens, UniProt O96028).
T2 sequence (O96028 whole entry): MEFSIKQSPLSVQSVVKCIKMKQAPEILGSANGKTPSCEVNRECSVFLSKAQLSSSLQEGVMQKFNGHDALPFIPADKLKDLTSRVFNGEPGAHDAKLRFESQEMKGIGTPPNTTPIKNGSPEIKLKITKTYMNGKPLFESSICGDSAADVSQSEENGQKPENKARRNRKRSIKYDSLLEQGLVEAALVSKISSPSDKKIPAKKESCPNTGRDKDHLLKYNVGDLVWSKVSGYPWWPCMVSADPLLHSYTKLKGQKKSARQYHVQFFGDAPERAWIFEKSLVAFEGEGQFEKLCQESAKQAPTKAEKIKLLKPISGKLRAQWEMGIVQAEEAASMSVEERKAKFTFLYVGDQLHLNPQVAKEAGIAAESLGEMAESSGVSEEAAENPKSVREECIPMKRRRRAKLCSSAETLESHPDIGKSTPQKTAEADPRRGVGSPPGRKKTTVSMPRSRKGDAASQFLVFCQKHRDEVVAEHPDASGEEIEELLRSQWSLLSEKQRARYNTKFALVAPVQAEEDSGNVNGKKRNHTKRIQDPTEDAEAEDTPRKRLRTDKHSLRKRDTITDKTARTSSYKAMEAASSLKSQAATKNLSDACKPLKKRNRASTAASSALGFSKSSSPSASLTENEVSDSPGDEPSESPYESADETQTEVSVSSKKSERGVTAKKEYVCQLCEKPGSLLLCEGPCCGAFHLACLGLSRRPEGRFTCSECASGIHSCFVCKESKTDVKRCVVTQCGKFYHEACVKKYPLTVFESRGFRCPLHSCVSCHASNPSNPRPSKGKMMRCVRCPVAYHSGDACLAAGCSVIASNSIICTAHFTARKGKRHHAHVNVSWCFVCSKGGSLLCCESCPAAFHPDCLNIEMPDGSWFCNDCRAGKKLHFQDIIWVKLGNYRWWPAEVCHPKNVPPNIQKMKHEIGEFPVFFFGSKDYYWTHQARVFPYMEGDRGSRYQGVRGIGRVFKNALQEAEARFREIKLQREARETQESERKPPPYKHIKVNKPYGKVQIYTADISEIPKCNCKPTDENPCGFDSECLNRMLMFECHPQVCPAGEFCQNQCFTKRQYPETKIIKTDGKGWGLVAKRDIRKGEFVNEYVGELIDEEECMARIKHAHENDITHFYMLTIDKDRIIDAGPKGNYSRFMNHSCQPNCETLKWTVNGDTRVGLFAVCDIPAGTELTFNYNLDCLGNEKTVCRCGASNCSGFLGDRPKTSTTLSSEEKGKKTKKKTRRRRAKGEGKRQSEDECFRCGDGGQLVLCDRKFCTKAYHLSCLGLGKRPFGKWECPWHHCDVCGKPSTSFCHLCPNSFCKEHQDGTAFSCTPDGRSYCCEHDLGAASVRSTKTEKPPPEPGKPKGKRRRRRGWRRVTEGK
It counts as biochemical.

Sequence of ATP-dependent molecular chaperone HSP82 (C4YTQ8 whole entry): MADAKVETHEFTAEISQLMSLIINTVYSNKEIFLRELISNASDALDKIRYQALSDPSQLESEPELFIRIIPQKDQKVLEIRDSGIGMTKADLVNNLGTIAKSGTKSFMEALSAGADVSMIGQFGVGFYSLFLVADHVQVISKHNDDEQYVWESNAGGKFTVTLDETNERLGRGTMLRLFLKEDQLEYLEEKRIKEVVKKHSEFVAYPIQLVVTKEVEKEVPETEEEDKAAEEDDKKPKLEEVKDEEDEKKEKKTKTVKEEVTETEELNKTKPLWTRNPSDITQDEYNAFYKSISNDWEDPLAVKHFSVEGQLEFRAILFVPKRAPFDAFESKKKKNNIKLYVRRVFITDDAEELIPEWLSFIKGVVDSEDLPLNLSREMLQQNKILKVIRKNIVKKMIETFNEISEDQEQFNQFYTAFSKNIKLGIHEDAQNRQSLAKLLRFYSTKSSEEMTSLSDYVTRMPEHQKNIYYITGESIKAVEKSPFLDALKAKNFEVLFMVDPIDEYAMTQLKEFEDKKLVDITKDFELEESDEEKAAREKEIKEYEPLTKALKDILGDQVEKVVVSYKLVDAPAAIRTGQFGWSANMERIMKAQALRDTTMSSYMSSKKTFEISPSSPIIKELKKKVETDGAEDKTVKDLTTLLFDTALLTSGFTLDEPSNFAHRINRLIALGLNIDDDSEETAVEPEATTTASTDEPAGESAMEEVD

As a reminder, the IC50 is the concentration needed to halve the response being measured. What is called EC50 is the concentration needed to bring the measured effect to its halfway point. In the case of `CCCCC(=O)NC(c1ccc(N(C)C)cc1)c1ccc2cccnc2c1O` (centres undefined), the figures for the IC50 (in test [1]; in the test on HEK293) were > 80 µM (inactive) and 2.23 µM (active), respectively. The EC50 is 3.12 µM (active) in the test on BJ [2], > 160 µM (inactive) in test [3], > 350 µM (not active) in “cells” and 3.17 µM (inconclusive) in the test with BJ [4].
Usually AC50 stands for the concentration giving half of the maximal activity seen. As to `CN(CC(=O)Nc1ccccc1Cl)C(=O)COC(=O)c1ccc([N+](=O)[O-])s1`, at Caspase-3, the concentration for half-maximal inhibition (IC50) was 6.21 µM (active). Also, the concentration at half-maximal activity (AC50) is 23.8 µM (active) at Caspase-8 and 8.27 µM (active) in [5].
